The target in the assay is T1, E. coli DdlB enzyme (D-alanine:D-alanine ligase) (Escherichia coli, UniProt P07862).
T1 construct: made in house; host or cells: E. coli
As to the kind of experiment: biochemical. The conditions noted are these: for remaining activity at 1800 µM: tested concentration 1.8 mM; for remaining activity at 1900 µM: tested concentration 1.9 mM; for remaining activity at 1700 µM: tested concentration 1.7 mM; for remaining activity at 2400 µM: tested concentration 2.4 mM; for remaining activity at 2100 µM: tested concentration 2.1 mM; for remaining activity at 2200 µM: tested concentration 2.2 mM; for remaining activity at 2000 µM: tested concentration 2.0 mM; for remaining activity at 2300 µM: tested concentration 2.3 mM; for remaining activity at 3200 µM: tested concentration 3.2 mM; for remaining activity at 500 µM: at 0.5 mM.

[1] abbreviates: fragment library screening, read-out: DdlB RA.
The mark [2] stands for this setting: residual activity of DdlB, fragment library screening, tested concentration 2.5 mM, read-out: DdlB RA.
[3] abbreviates: residual activity, read-out: DdlB RA.
Setting [4] is: tested concentration 2.5 mM, read-out: DdlB RA.
Setting [5] is: residual activity of DdlB, fragment library screening, read-out: DdlB RA.
[6] abbreviates: read-out: DdlB inhibition, RA (Residual Activity).

Like-named read-outs stand apart in the source and are kept apart here. Residues, ends and D or L forms follow the SMILES beside them.

Take `O=C(O)C[C@H]1NC(=O)N(CCc2cccc(F)c2)C1=O` [Compound Y042-2983]: under setting [1], the remaining activity at 1800 µM stood at 93%.

Turning to `CC1=NCCC1` [FLD186], the remaining activity at 2500 µM under setting [2] was determined as 71%. Same read-out and setting: as for `O=C(O)c1ccc(F)cc1` [FLD062], the figure is 98%. With `COCCn1c(CCC(=O)O)ccc1-c1ccccc1` [Compound D135-0001], the remaining activity at 1800 µM (read-out: DdlB RA) was determined as 90%. As to `O=C(O)c1cnn2c(-c3ccccc3)ccnc12` [Compound 9, 7-Phenylpyrazolo[1,5-a]pyrimidine-3-carboxylic acid], the remaining activity at 5000 µM (at 5 mM, read-out: DdlB inhibition, RA (Residual Activity)) turned out to be 90%. For `O=C(Nc1nnc[nH]1)C1CCC1` [Compound P774-4606], the remaining activity at 3000 µM (residual activity of DdlB, fragment library screening, tested concentration 3.0 mM, read-out: DdlB RA) turned out to be 94%. On to `CNC(=O)C1CCCN(S(=O)(=O)c2cccs2)C1` (stereo not drawn) [Compound D356-2306], for which the remaining activity at 1900 µM under setting [3] was 86%.

As to `Cc1cc(C)n(CCN2CCOCC2)n1` [FF20-3241], the remaining activity at 1900 µM (read-out: DdlB RA) turned out to be 86%. On to `Nc1csc2nccnc12` [FLD078], for which the remaining activity at 2500 µM under setting [2] worked out at 100%. Take `C[C@H](NC(=O)[C@H](C)n1nnc2ccccc2c1=O)C(=O)O` [Compound Y040-2749]: the remaining activity at 1700 µM under setting [1] turned out to be 92%.

`Nc1c(C(=O)O)cnc2ccc(F)cc12` [Compound 8020-2302]: under “read-out: DdlB RA”, the remaining activity at 2400 µM came out at 93%.

As to `Cc1cc2nc(COC(=O)C(C)(C)C)cc(=O)n2o1` [Compound G265-0759], the remaining activity at 1900 µM (read-out: DdlB RA) was 97%. For the compound `Cc1noc(C)c1C(=O)NCC1Cn2cccc2CN1C` (stereo not drawn) [Compound S590-0019], under setting [3], the remaining activity at 2100 µM worked out at 45%. As to `COC(=O)c1cscc1N` [FLD143], under setting [2], the remaining activity at 2500 µM was 92%.

Regarding `CCOC(=O)N1CCNCC1` [FLD191], the remaining activity at 2500 µM under setting [2] was 100%. `Cc1ccc(S(N)(=O)=O)cc1C(=O)NCC(C)C` [Compound Y050-1744]: the remaining activity at 1800 µM (read-out: DdlB RA) turned out to be 83%. Consider `CCc1ccc(C(=O)N2CCC(C3CCNC3)CC2)cc1` (stereo not drawn) [Compound S632-2763], for which the remaining activity at 1700 µM under setting [3] is 69%. Turning to `O=C(O)CCCC(=O)N1CCN(c2ccccc2)CC1` [Compound Y204-6418], the remaining activity at 1800 µM under setting [1] worked out at 99%. As for `Cc1cccc(Cc2n[nH]c(CC(=O)NC3CCCC3)n2)c1` [Compound P496-1655], the remaining activity at 1700 µM (read-out: DdlB RA) was determined as 97%. `Cc1cc(C)[nH]n1` [FLD130]: the remaining activity at 2500 µM under setting [2] amounted to 100%. Regarding `Nc1cc(=O)[nH]o1` [Compound 8020-8247], the remaining activity at 5000 µM (tested concentration 5.0 mM, read-out: DdlB RA) was determined as 97%.

`O=C1CC2CS(=O)(=O)CC2N1C1CCCCC1` (stereo not drawn) [Compound 8013-3540]: for the setting “read-out: DdlB RA”, the remaining activity at 2100 µM turned out to be 82%. Regarding `CCS(=O)(=O)N1CCCC1c1ccc(C)cc1` (stereo not drawn) [Compound D399-0123], for the setting “read-out: DdlB RA”, the remaining activity at 2400 µM is 89%. `CNC(=O)c1cc(C)nc2ccc(C(C)C)cc12` [Compound Z601-7136]: where the note is “read-out: DdlB RA”, the remaining activity at 2100 µM was 97%. For `CN(CC1CCOC1)C(=O)NC1CCCCC1` (stereo not drawn) [Compound S213-1594], the remaining activity at 2500 µM under setting [4] came to 91%. With `OCc1ccc(Br)cc1` [FLD122], under setting [2], the remaining activity at 2500 µM was found to be 96%.

Take `CC1(O)CCC12CCN(C(=O)CC1CC1)CC2` (stereo not drawn) [Compound S971-1224]: under setting [4], the remaining activity at 2500 µM was 75%. On to `CCNc1cc(N2CCC(CCC(=O)O)CC2)ncn1` [Compound P207-8919], for which the remaining activity at 1800 µM under setting [1] worked out at 83%. For `O=S(=O)(O)c1ccc2[nH]nnc2c1` [Compound 8020-8129], under setting [4], the remaining activity at 2500 µM is 93%. Regarding `O=C(Nc1ccccc1)c1nc[nH]c1C(=O)O` [Compound 8011-9089], under setting [3], the remaining activity at 2200 µM is 104%.

Regarding `O=c1[nH]c2ccc(O)cc2o1` [Compound 8020-7157], the remaining activity at 3300 µM (tested concentration 3.3 mM, read-out: DdlB RA) was determined as 96%.

For `COc1nc(Cl)nc(OC)n1` [FLD049], the remaining activity at 2500 µM under setting [2] came out at 95%. In the case of `O=C(O)c1ccccc1NC(=O)N1CCOCC1` [Compound Y043-2494], the remaining activity at 2000 µM under setting [3] is 96%. In the case of `CCC(CC)NC1=NS(=O)(=O)c2ccccc21` [Compound 8003-7481], where the note is “read-out: DdlB RA”, the remaining activity at 2400 µM worked out at 100%. `O=C(O)[C@H](O)Cc1ccccc1` [FLD039]: the remaining activity at 2500 µM under setting [2] came out at 93%. `CSc1nc(N)n[nH]1` [FLD128]: the remaining activity at 2500 µM under setting [2] was 97%.

Turning to `Cc1ccc(C)c(S(=O)(=O)O)c1` [FLD115], the remaining activity at 2500 µM under setting [2] came to 94%. For `Cc1cc(C)n(CO)n1` [FLD195], under setting [2], the remaining activity at 2500 µM was found to be 97%. The same measure, in the same setting: as for `Cc1ccc(O)c(C)c1` [FLD165], the figure is 91%. On to `N#Cc1c2c([nH]c(=O)c1C(=O)O)CCCCCC2` [Compound 8020-6316], for which the remaining activity at 2000 µM (read-out: DdlB RA) came to 91%. As for `[C-]#[N+]CS(=O)(=O)c1ccc(C)cc1` [FLD035], under “read-out: DdlB RA”, the remaining activity at 2500 µM was 100%. Consider `Cc1ccccc1C(=O)NCC(=O)O` [FLD033], for which the remaining activity at 2500 µM under setting [2] amounted to 100%.

Regarding `N#Cc1ccccc1S(N)(=O)=O` [Compound 8016-9723], for the setting “tested concentration 2.7 mM, read-out: DdlB RA”, the remaining activity at 2700 µM was found to be 88%.

With `Cc1cc(Cl)ccc1O` [FLD037], the remaining activity at 2500 µM under setting [2] was 85%.

For the compound `O=C(Nc1ccccc1)Nc1ccc2[nH]c(=O)oc2c1` [Compound G434-0096], the remaining activity at 1900 µM (read-out: DdlB RA) stood at 75%.

With `COc1cnc(N)nc1` [FLD089], the remaining activity at 2500 µM under setting [2] was 100%. As for `O=C(O)c1ccccc1NC(=O)C(F)(F)F` [Compound 0931-0537], under setting [3], the remaining activity at 2100 µM amounted to 104%. Take `NC(=O)N[C@@H](Cc1ccccc1)C(=O)O` [Compound 8011-7026]: under “read-out: DdlB RA”, the remaining activity at 2400 µM worked out at 93%. In the case of `c1ccc2c(c1)CCNC2` [FLD166], under setting [2], the remaining activity at 2500 µM was found to be 77%. On to `CC(=O)c1cnc2c(C(=O)O)cnn2c1C` [Compound D717-0038], for which the remaining activity at 2300 µM (read-out: DdlB RA) turned out to be 104%. Take `CC(C)CN1CC(O)CN(C(=O)C2CCC2)CC1=O` (stereo not drawn) [SA85-1056]: under setting [3], the remaining activity at 2200 µM is 97%. Take `NCCNC(=O)c1nonc1N` [Compound 8006-0101]: the remaining activity at 3200 µM under setting [5] came out at 93%. For `N#Cc1cccnc1N` [FLD196], under setting [2], the remaining activity at 2500 µM was 99%. For `O=C(O)c1cnn2c(-c3ccsc3)ccnc12` [Compound 16, 7-(Thiophen-3-yl)pyrazolo[1,5-a]pyrimidine-3-carboxylic acid], the remaining activity at 500 µM under setting [6] was found to be 89%. For `COc1ncccc1S(=O)(=O)N1CCCCC1` [Compound C200-8263], the remaining activity at 2300 µM (read-out: DdlB RA) was found to be 100%. Turning to `Cc1cc(C2CCCN2C(=O)c2ccc(F)c(F)c2)on1` (stereo not drawn) [Compound Z632-2808], the remaining activity at 1700 µM under setting [3] is 98%. In the case of `Cc1cc(N)on1` [FLD036], the remaining activity at 2500 µM under setting [2] came out at 97%. On to `Nc1ncnc2[nH]c(N3CCOCC3)nc12` [Compound 8001-0336], for which the remaining activity at 2300 µM under setting [3] was 98%. As to `C#CC(=O)NC(C)c1ccc(C)cc1` (stereo not drawn) [Compound T001-1588], the remaining activity at 3200 µM under setting [5] is 93%.

Take `CCOc1ccc(O)cc1` [FLD099]: the remaining activity at 2500 µM under setting [2] is 100%.

For the compound `CC(C)C(=O)Nc1ccc(Cl)cc1C(=O)O` [Compound 8012-2055], under setting [3], the remaining activity at 2100 µM turned out to be 110%.

Regarding `CCN(CC)CCNc1c(-c2ccccc2)c(=O)c1=O` [Compound E470-0370], the remaining activity at 1800 µM (read-out: DdlB RA) was determined as 94%. In the case of `O=C1N[C@@H](c2ccccc2)CO1` [FLD127], the remaining activity at 2500 µM under setting [2] turned out to be 99%. As for `Cc1c(Br)c(C(=O)O)nn1C` [Compound Y501-6296], the remaining activity at 2300 µM under setting [3] was 107%. With `NCC(=O)N[C@@H](Cc1ccc(O)cc1)C(=O)O` [Compound Y043-8421] (H-Gly-Tyr-OH), where the note is “read-out: DdlB RA”, the remaining activity at 2100 µM worked out at 95%. In the case of `O=C(O)c1ccccc1NCCc1ccc(Cl)cc1` [Compound 8524-6914], the remaining activity at 1800 µM under setting [3] is 105%.

With `NC(=O)NCC(=O)N[C@H](Cc1c[nH]cn1)C(=O)O` [Compound 8012-0410], the remaining activity at 2000 µM under setting [1] is 91%. As for `Cc1c(C(=O)O)nnn1-c1ccc2c(c1)CCC2` [Compound T640-0079], the remaining activity at 2100 µM (read-out: DdlB RA) was 92%.

Regarding `N#Cc1cccc2cccc(S(=O)(=O)O)c12` [Compound 1326-0564], under “read-out: DdlB RA”, the remaining activity at 2200 µM was found to be 96%. For the compound `O=C(O)c1cnn2c(-c3ccc4c(c3)OCO4)ccnc12` [Compound 14, 7-(Benzo[d][1,3]dioxol-5-yl)pyrazolo[1,5-a]pyrimidine-3-carboxylic acid], the remaining activity at 500 µM under setting [6] came to 100%. In the case of `Cc1nc2ccccc2c(O)c1S(=O)(=O)O` [Compound L150-1119], the remaining activity at 2100 µM (read-out: DdlB RA) was 90%.

In the case of `O=C(O)c1cnc(-c2ccc(F)cc2)[nH]c1=O` [Compound 8020-2279], under setting [3], the remaining activity at 2100 µM is 94%. For `Cc1ccc2nc3c(C(=O)O)cccn3c(=O)c2c1` [Compound C200-9601], the remaining activity at 2000 µM under setting [3] was 75%.

Take `CCS(=O)(=O)N1CCC2(CCC2OC)CC1` (stereo not drawn) [Compound S664-0247]: for the setting “read-out: DdlB RA”, the remaining activity at 2000 µM turned out to be 92%. Consider `CCOC(=O)c1cnn2c(-c3ccc(C)c(C)c3)ccnc12` [Compound 20, Ethyl 7–(3,4-dimethylphenyl)pyrazolo[1,5-a]pyrimidine-3-carboxylate], for which the remaining activity at 500 µM under setting [6] stood at 100%.

The values above are taken from paper PMC9718554, “Discovery of a fragment hit compound targeting D-Ala:D-Ala ligase of bacterial peptidoglycan biosynthesis” (Journal of Enzyme Inhibition and Medicinal Chemistry, 2022).
